Laboratory results: publication PMC5957473, “Small Molecule Neuropilin-1 Antagonists Combine Antiangiogenic and Antitumor Activity with Immune Modulation through Reduction of Transforming Growth Factor Beta (TGFβ) Production in Regulatory T-Cells” (Journal of Medicinal Chemistry, 2018)
Blank lines part the entries; values can stand above or below the compound they belong to.

Experiments:
NRP1-b1 = biological target: T1, NRP1-b1 (Homo sapiens, UniProt O14786); assay: SPR equilibrium binding assay (Biacore 4000), immobilised NRP1-b1; settings: equilibrium (steady-state) binding, 25 °C, average ± SD of high and low density surfaces
T1 construct: His6 (TEV protease-cleavable) (N); made in house; host or cells: Escherichia coli Rosetta Gami 2 (DE3) pLysS
T1 sequence (O14786 273-427): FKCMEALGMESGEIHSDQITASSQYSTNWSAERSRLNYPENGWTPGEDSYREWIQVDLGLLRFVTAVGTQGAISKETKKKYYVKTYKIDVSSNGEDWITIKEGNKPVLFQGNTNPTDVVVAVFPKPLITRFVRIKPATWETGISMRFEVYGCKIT
Procedure: All the compounds were evaluated using an SPR binding assay (Biacore) where recombinant NRP1-b1b2 protein was immobilized on a dextran coated chip.[23] Selected compounds were then evaluated in competitive binding assay systems using biotinylated VEGF. […] This encouraging result prompted us to conduct a more focused structure–activity study around the 10a structure.
Surface plasmon resonance experiments were performed using a Biacore 4000 instrument at 25 °C. Sensor chips, buffer stock solutions, and immobilization reagents were from GE Healthcare. Recombinant human NRP1-b1 was as above. Other reagents were obtained from Sigma. Immobilization: PBS (containing 0.05% surfactant P20) was used as the running buffer. The four flow cells were treated in the same way to optimize throughput. In summary, using a CM5 chip spots 1 and 2 were activated with the coupling reagents EDC and NHS for 10 min. NRP1-b1 at a concentration of 20 μg/mL in 10 mM sodium acetate pH 5 was injected onto the surface for 10 and 5 min in spots 1 and 2, respectively, to generate surfaces with high and low density. The immobilization levels ranged from 2302 to 1823 RU on spot 1 and from 948 to 1112 RU in spot 2. The unmodified spot 3 was used as a reference. […] Dose–responses were obtained using a 2-fold sample dilution from 16 μM to 31 nM, using an injection time of 60 s. Surface regeneration between injections was not necessary, but a wash step with 1 M NaCl was included after injection of the highest concentration sample for each compound. Data processing: Binding curves were corrected for variations in DMSO concentration and normalized by molecular weight. Binding results to high and low-density surfaces were processed independently and the average ± SD is presented. KDs reported are derived from steady-state binding responses and therefore correspond to the equilibrium binding affinity of the compounds.

[1] = IV pharmacokinetics in mice; format: in vivo; settings: for half-life: 2 mg/kg
Procedure: To test compound drug-like properties, selected compounds with low IC50 were further tested for pharmacokinetics (PK) profile. First, 6–8 week-old BABL/c female mice were used, then 2 mg/kg of compounds was formulated in 7.5% DMSO and 92.5% solution and intravenously dosed from the tail vein as a bolus. Blood samples were collected by cardiac puncture at 5, 15, 30, 60, 180, and 240 min post dosing. Plasma samples were prepared by centrifugation at 7000 rpm for 5 min, and supernatants were collected, immediately snap-frozen on dry ice, and stored at −20C. Samples were analyzed by liquid chromatography–tandem mass spectrometry using electrospray ionization and data was analyzed by WinNonlin software.

DU145/cells.Ad.NRP1 = biological target: T2, DU145/cells.Ad.NRP1 (Homo sapiens, UniProt O14786); assay: Cell-based competition binding with bt-VEGF in DU145 cells infected with adenovirus expressing WT NRP1; settings: HS value in brackets beside IC50
T2 construct: expressed in transfected cells; host or cells: DU145 prostate cancer cells (ATCC) infected with adenovirus

HUVEC cells [2] = assay: Wound healing scratch assay; format: cell-based, human; settings: 30 μM + VEGF-A 25 ng/mL, 1% EGM
HUVEC cells [3] = assay: Transwell migration (chemotaxis) of HUVEC cells toward VEGF-A; format: cell-based, human; settings: 30 μM, no VEGF-A
NRP2 = biological target: T3, NRP2 (Homo sapiens, UniProt O60462); assay: SPR single-cycle binding to NRP2 (Biacore T200); settings: 62.5 – 1000 nM, NRP2 His tagged and NRP2-Fc chimera
T3 sequence (O60462 23-802 limits assumed): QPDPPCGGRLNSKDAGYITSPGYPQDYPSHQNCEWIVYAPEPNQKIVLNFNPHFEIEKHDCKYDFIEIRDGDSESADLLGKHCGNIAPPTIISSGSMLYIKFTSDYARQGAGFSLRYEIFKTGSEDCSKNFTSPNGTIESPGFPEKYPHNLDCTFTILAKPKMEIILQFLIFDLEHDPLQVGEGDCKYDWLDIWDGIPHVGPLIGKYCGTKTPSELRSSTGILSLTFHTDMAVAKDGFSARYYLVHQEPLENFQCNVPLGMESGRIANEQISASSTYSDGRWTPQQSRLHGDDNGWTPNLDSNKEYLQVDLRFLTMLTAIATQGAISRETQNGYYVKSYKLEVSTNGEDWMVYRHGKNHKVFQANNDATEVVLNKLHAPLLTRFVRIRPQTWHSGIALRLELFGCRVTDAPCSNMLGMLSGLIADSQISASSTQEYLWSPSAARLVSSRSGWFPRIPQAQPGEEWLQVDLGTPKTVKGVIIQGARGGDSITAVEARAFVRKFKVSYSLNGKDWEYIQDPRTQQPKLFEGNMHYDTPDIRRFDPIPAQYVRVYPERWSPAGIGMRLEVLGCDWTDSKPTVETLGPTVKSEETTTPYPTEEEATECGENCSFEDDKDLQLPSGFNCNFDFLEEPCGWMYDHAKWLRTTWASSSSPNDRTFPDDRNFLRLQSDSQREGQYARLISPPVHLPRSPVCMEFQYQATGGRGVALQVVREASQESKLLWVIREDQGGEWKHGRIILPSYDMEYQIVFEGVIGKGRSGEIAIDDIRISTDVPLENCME

Nrp1+ Tregs = assay: TGFβ production by Nrp1+ Tregs exposed to glioma conditioned media (ELISA); format: cell-based, mice; settings: 500 nM pretreatment 2 h, GCM 12 h
[4] = tested on: A375P (malignant melanoma) cells; assay: 3D spheroid invasion assay; format: cell-based
NRP1 = tested on: NRP1; design: method as in PMID 20151671; settings: read-out: IC50, inhibition of bt-VEGF-A binding to NRP1; cited from earlier work
HUVEC cells [5] = tested on: HUVEC cells; design: method as in PMID 20151671; settings: 100 μM in combination with VEGF-A; cited from earlier work
[6] = female, BABL/c (so in the source); BALB/c), mouse, plasma, IV bolus 2 mg/kg

T2 sequence (O14786 22-923): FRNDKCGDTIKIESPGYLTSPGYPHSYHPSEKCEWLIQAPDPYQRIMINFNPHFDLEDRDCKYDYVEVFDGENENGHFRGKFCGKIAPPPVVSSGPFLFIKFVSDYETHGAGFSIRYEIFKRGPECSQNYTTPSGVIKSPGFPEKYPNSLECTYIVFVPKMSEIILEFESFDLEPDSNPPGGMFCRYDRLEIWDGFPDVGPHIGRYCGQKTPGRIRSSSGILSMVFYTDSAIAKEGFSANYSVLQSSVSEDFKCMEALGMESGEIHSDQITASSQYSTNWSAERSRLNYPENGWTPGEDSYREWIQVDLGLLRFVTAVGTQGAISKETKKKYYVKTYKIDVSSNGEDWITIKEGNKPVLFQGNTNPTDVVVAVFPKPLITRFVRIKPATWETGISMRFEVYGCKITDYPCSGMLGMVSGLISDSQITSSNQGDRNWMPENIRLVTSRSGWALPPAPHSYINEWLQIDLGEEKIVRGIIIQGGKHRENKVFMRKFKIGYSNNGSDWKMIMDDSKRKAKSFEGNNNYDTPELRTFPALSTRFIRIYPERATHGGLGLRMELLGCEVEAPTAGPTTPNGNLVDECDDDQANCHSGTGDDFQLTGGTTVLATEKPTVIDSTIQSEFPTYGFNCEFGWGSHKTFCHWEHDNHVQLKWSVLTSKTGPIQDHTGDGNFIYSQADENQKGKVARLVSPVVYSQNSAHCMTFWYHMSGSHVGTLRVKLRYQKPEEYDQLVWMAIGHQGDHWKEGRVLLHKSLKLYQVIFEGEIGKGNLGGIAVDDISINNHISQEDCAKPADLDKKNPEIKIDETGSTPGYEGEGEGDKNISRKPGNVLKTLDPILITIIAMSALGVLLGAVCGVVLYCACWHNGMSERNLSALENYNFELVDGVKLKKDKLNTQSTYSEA

Structure (SMILES): N=C(N)NCCC[C@H](NC(=O)c1sccc1NS(=O)(=O)c1cc(-c2ccccc2CNCc2ncc[nH]2)cc2c1OCC2)C(=O)O [9b, N2-(3-((5-(2-((((1H-Imidazol-2-yl)methyl)amino)methyl)phenyl)-2,3-dihydrobenzofuran)-7-sulfonamido)thiophene-2-carbonyl)-Nω-((2,2,4,6,7-pentamethyl-2,3-dihydrobenzofuran-5-yl)sulfonyl)-L-arginine]
Kd (NRP1-b1): 1.77 ± 0.1 µM

Structure (SMILES): N=C(N)NCCC[C@H](NC(=O)c1sccc1NS(=O)(=O)c1cc(-c2ccccc2CNCc2cc[nH]n2)cc2c1OCC2)C(=O)O [9c, N2-(3-((5-(2-((((1H-Pyrazol-3-yl)methyl)amino)methyl)phenyl)-2,3-dihydrobenzofuran)-7-sulfonamido)thiophene-2-carbonyl)-Nω-((2,2,4,6,7-pentamethyl-2,3-dihydrobenzofuran-5-yl)sulfonyl)-L-arginine]
Kd (NRP1-b1): 2.1 ± 0.04 µM

Structure (SMILES): CN(C)Cc1cccc(-c2cc3c(c(S(=O)(=O)Nc4ccsc4C(=O)N[C@@H](CCCNC(=N)N)C(=O)O)c2)OCC3)c1 [compound 13, (3-((5-(3-((Dimethylamino)methyl)phenyl)-2,3-dihydrobenzofuran)-7-sulfonamido)thiophene-2-carbonyl)-L-arginine]
clearance and AUC compared with 1 ([1]; IV, in words): notably higher clearance and lower AUC than 1

Structure (SMILES): N=C(N)NCCC[C@H](NC(=O)c1sccc1NS(=O)(=O)c1cc(-c2ccccc2CNCc2ccccn2)cc2c1OCC2)C(=O)O [9e, Nω-((2,2,4,6,7-Pentamethyl-2,3-dihydrobenzofuran-5-yl)sulfonyl)-N2-(3-((5-(2-(((pyridin-2-ylmethyl)amino)methyl)phenyl)-2,3-dihydrobenzofuran)-7-sulfonamido)thiophene-2-carbonyl)-L-arginine]
Kd (NRP1-b1): 0.68 ± 0.21 µM

Structure (SMILES): N=C(N)NCCC[C@H](NC(=O)c1sccc1NS(=O)(=O)c1cc(-c2ccccc2CNCc2cn[nH]c2)cc2c1OCC2)C(=O)O [9d, N2-(3-((5-(2-((((1H-Pyrazol-4-yl)methyl)amino)methyl)phenyl)-2,3-dihydrobenzofuran)-7-sulfonamido)thiophene-2-carbonyl)-Nω-((2,2,4,6,7-pentamethyl-2,3-dihydrobenzofuran-5-yl)sulfonyl)-L-arginine]
Kd (NRP1-b1): 2.14 ± 0.07 µM

Structure (SMILES): N=C(N)NCCC[C@H](NC(=O)c1sccc1NS(=O)(=O)c1cc(-c2ccc(CN)cc2)cc2c1OCC2)C(=O)O [compound 1, (3-((5-(4-(Aminomethyl)phenyl)-2,3-dihydrobenzofuran)-7-sulfonamido)thiophene-2-carbonyl)-L-arginine]
half-life ([1]; female, BABL/c, mouse, plasma, IV): 4.29 h
clearance ([1]; female, BABL/c, mouse, plasma, IV bolus 2 mg/kg): 14 mL/min/kg
DU145/cells.Ad.NRP1, (HS) (DU145/cells.Ad.NRP1): 0.9
effect on VEGF-induced wound closure (HUVEC cells [2]): can delay the VEGF-induced wound closure
effect on HUVEC migration, compound alone (HUVEC cells [3]): did not influence the migratory ability of these cells
binding to NRP2 by SPR (NRP2): no detectable NRP2 binding
effect on GCM-induced production of TGFβ (Nrp1+ Tregs): inhibited the GCM-induced production of TGFβ
effect on A375P spheroid invasion induced by VEGF-A ([4]; 30 μM + VEGF-A 25 ng/mL, 7 days): significantly inhibited invasion induced by VEGF-A
effect on A375P radial invasion, compound alone ([4]; 30 μM, compared to DMSO control): no significant effect on radial invasion

Structure (SMILES): N=C(N)NCCC[C@H](NC(=O)c1sccc1NS(=O)(=O)c1cccc2nsnc12)C(=O)O [EG00229, (S)-2-(3-(benzo[c][1,2,5]thiadiazole-4-sulfonamido)thiophene-2-carboxamido)-5-((diaminomethylene)amino)pentanoic acid]
IC50 (NRP1): 8 µM
reduction of migration (previously reported) (HUVEC cells [5]): ≈ 34%

More lines, now with the values ahead:

Kd (NRP1-b1): 0.41 ± 0.09 µM
Structure (SMILES): N=C(N)NCCC[C@H](NC(=O)c1sccc1NS(=O)(=O)c1cc(-c2cccc(CNCc3ccccn3)c2)cc2c1OCC2)C(=O)O [10e, Nω-((2,2,4,6,7-Pentamethyl-2,3-dihydrobenzofuran-5-yl)sulfonyl)-N2-(3-((5-(3-(((pyridin-2-ylmethyl)amino)methyl)phenyl)-2,3-dihydrobenzofuran)-7-sulfonamido)thiophene-2-carbonyl)-L-arginine]

t1/2 ([1]; IV bolus 2 mg/kg): 1.20 h
half-life ([1]; female, BABL/c (so in the source); BALB/c), mouse, plasma, IV): 1.2 h
AUC(0-inf) [1, 6]: 3140 ng·h/mL
Cmax [1, 6]: 2620 ng/mL
Tmax [1, 6]: 4.8 min
Vd [1, 6]: 1.1 L/kg
clearance [1, 6]: 18.4 mL/min/kg
Kd (NRP1-b1): 1.43 ± 0.11 µM
Structure (SMILES): N=C(N)NCCC[C@H](NC(=O)c1sccc1NS(=O)(=O)c1cc(-c2cccc(CNCc3cn[nH]c3)c2)cc2c1OCC2)C(=O)O [10d, N2-(3-((5-(3-((((1H-Pyrazol-4-yl)methyl)amino)methyl)phenyl)-2,3-dihydrobenzofuran)-7-sulfonamido)thiophene-2-carbonyl)-Nω-((2,2,4,6,7-pentamethyl-2,3-dihydrobenzofuran-5-yl)sulfonyl)-L-arginine]

Kd (NRP1-b1): 0.84 ± 0.16 µM
Structure (SMILES): N=C(N)NCCC[C@H](NC(=O)c1sccc1NS(=O)(=O)c1cc(-c2cccc(CNCc3ncc[nH]3)c2)cc2c1OCC2)C(=O)O [10b, N2-(3-((5-(3-((((1H-Imidazol-2-yl)methyl)amino)methyl)phenyl)-2,3-dihydrobenzofuran)-7-sulfonamido)thiophene-2-carbonyl)-Nω-((2,2,4,6,7-pentamethyl-2,3-dihydrobenzofuran-5-yl)sulfonyl)-L-arginine]

Kd (NRP1-b1): 1.45 ± 0.07 µM
Structure (SMILES): N=C(N)NCCC[C@H](NC(=O)c1sccc1NS(=O)(=O)c1cc(-c2cccc(CNCc3cc[nH]n3)c2)cc2c1OCC2)C(=O)O [10c, N2-(3-((5-(3-((((1H-Pyrazol-3-yl)methyl)amino)methyl)phenyl)-2,3-dihydrobenzofuran)-7-sulfonamido)thiophene-2-carbonyl)-Nω-((2,2,4,6,7-pentamethyl-2,3-dihydrobenzofuran-5-yl)sulfonyl)-L-arginine]
